Calls of active or inactive are those of the source. No rule for the calls is given here.
Target: Lethal factor (Bacillus anthracis) (UniProt P15917)
Assay: Bacillus anthracis LF protease inhibitors, dose response, biochemical, multiplex microsphere, cherry pick 1 compounds (AID 602178)
Settings: multiplex microsphere protease cleavage assay, LF inhibition

Chain of Lethal factor (Bacillus anthracis) (P15917 whole entry, looked up): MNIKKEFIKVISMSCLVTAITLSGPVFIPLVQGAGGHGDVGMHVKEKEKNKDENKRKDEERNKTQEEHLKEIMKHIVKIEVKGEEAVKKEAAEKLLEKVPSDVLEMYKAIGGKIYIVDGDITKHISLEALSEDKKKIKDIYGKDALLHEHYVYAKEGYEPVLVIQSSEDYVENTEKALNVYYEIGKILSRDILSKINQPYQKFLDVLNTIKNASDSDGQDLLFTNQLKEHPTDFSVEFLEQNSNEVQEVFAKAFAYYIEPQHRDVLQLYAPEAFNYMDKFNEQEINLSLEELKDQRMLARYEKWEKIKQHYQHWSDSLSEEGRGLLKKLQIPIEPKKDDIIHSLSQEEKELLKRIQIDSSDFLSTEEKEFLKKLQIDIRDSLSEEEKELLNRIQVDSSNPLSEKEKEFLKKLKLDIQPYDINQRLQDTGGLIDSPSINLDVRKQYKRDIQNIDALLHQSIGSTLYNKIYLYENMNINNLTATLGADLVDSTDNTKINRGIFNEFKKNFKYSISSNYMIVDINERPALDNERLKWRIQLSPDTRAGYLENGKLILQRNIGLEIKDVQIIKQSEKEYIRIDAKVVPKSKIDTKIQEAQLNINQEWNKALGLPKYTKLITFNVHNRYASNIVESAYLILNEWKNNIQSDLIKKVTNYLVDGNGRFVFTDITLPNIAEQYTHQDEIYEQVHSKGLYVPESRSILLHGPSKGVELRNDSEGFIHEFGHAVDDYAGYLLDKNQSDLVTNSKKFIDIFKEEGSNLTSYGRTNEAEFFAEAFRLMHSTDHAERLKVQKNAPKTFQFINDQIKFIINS

SMILES: Oc1[nH]c(N=C2N=c3ccccc3=N2)c2ccccc12
- EC50: > 20 µM (inactive)

Reference: PubChem BioAssay AID602178 (NMMLSC, 2012)
